The conditions of data set [1]: concentrated (>1%) solution cannot be generated by Nakazato technique; cited from earlier work.
The conditions of data set [2]: 4° C. in the dark, cited from earlier work.
Data set [3] concerns HeLa (human cervix carcinoma cells). In words: Phototoxicity in HeLa cells under irradiation at 662 nm, MTT assay. The class given is cell-based. To be noted: 30-minute incubation, 10 J/cm^2 irradiation. How it is done:
Illumination was performed at 662 nm (Ceralas PDT laser, BioLitec AG, Germany; 150 mW/cm^2, 5-20 J/cm^2) after a 30-minute incubation period. Cell survival was measured using the MTT assay. Values are expressed as percentages of illuminated, but non-incubated controls. Experiments were performed in octuplets.

Where a name gives a salt, the structure may show the parent alone.

With `C=Cc1c(C)c2cc3nc(c4c5[nH]c(cc6nc(cc1[nH]2)C(C)=C6CC)c(C)c5C(=O)[C@@H]4C(=O)OC)[C@@H](CCC(=O)O)[C@@H]3C` [sodium salt of pheophorbide a (4), sodium salt of pheophorbide a], in data set [1], the “concentration of injectable solution in water that can be generated” value is ≤ 1%.

Consider trisodium lysyl-chlorin p6, for which the “stable in an aqueous solution” value in data set [2] (aqueous solution) was ≤ 24 h. Also, the “stable in solid form” value in data set [2] (solid form) is on record as “up to 4 months”.

In data set [3], “salt of pheophorbide a (5) with N-methyl-D-glucamine” yielded an IC50 phototoxicity of 8.0 µg/mL and an IC90 phototoxicity of 22.0 µg/mL.

These data come from US6949581B2, “Water-soluble mono-PEGylated tetrapyrrole derivatives for photodynamic therapy and method of production” (CeramOptec Industries, Inc., priority 2003, dated 2005).
